In experiment [1] the target is T1, cGMP binding sites of the GST-cGB-PDE5 fusion protein (Homo sapiens, UniProt O76074).
T1 construct: made in house; host or cells: E. coli BL21 (DE3)
Kind of experiment: cGMP binding assay with GST-cGB-PDE5 fusion protein. Particulars: for competition with cGMP binding at high concentration: 100 μM compound versus cGMP 2 μM. The source says:
RT-PCR method is used to obtain the cGB domain of PDE5 with forward and reverse primers designed from bovine PDE5A cDNA sequence (McAllister-Lucas L. M. et al, J. Biol. Chem. 268, 22863-22873, 1993) and the selection among PDE 1-10 families. 5′-3′, Inc. kits for total RNA followed by oligo (dT) column purification of mRNA are used with HT-29 cells. […] It is then cloned into pGEX-5X-3 glutathione-S-ransferase (GST) fusion vector (Pharmacia Biotech )with tac promoter, and EcoRI and XhoI cut sites. The fusion vector is then transfected into E. Coli BL21 (DE3) bacteria (Invitrogen). The transfected BL21 bacteria is grown to log phase, and then IPTG is added as an inducer. The induction is carried at 20° C. for 24 hrs. The bacteria are harvested and lysed. The soluble cell lysate is incubated with GSH conjugated Sepharose 4B (GSH-Sepharose 4B). The GST-cGB-pDE5 fusion protein can bind to the GSH-Sepharose beads, and the other proteins are washed off from beads with excessive cold PBS.
Then, the mixture is transferred to Brandel MB-24 cell harvester with GF/B as the filter membrane followed by 2 washes with 10 mL of cold 5 mM potassium buffer(pH 6.8). The membranes are then cut out and transferred to scintillation vials followed by the addition of 1 mL of H2O and 6 mL of Ready Safe™ liquid scintillation cocktail to each vial. The vials are counted on a Beckman LS 6500 scintillation counter.
The quenching by filter membrane or other debris are also calibrated.

For a further experiment, the system named is U937 cells. Briefly: apoptosis induction of U937 cells, active caspase 3 indirect immunofluorescence. Particulars: 24 hours. In kind it is cell-based. How it is done:
U937 cells (from ATCC Rockville, Md.) were grown in RPMI media supplemented with 5% FCS, glutamine, antibiotic/antimycotic and sodium pyruvate. Total RNA was isolated from two U937 cultures, one treated with 5 nM TPA for 48 hours and one grown in normal media as listed above, using the Rouche High Pure RNA Isolation Kit (cat #1 828 665) as per manufacturers protocol. cDNA was then synthesized from the total RNA using GibcoBRL SuperscriptII (Cat #18064-022) reverse transcriptase as per manufacturers protocol. The resulting cDNA was used as a template for RT-PCR reactions using primer sets specific for PDE2 (forward: […], reverse: […]) or PDE5 (forward: […], reverse: […]). mRNA for PDE2 and 5 were both present in the untreated U937 cells. Upon treatment with TPA, the relative amounts of PDE2 mRNA increased 5 fold. Therefore, U937 cells treated with TPA and driven to differentiate into an activated macrophage like state have elevated levels of PDE2 mRNA (see FIG. 1).
The presence of PDE2 and PDE5 protein within U937 cells was confirmed by indirect immunofluorescence (IIF). U937 cells were cultured as above. Two U937 cultures, one grown in the presence of 5 nM TPA for 48 hours and one grown in normal media were processed. All cultures were collected by centrifugation (Shandon Cytospin, 2 minutes @600 rpm) onto poly-L lysine-coated slides and immediately fixed in fresh 3% paraformaldehyde buffered in PBS for 10 minutes. Adherent cultures were grown on coverslips and fixed as above. Cells were permeablized in 0.2% Triton-100 for 2 minutes. Slides were blocked with blocking buffer (5% goat serum, 5% glycerol, 1% gelatin from cold water fish skin and 0.04% NaN3 in PBS) for 1 hour at room temperature.
Slides were then incubated for 1 hour at 37° C. in a humid chamber with antibodies specific for PDE2 (generated in a sheep against the peptide […]) or PDE5 (generated in sheep against the peptide […]). […]
The level of apoptosis in U937 cells was quantified by scoring 500 consecutive cells for the presence of active caspase 3. […]

The target of the next experiment is native bovine PDE5 (Bos taurus, UniProt Q28156). Particulars: read-out: Kd of cGMP binding, native bovine PDE5; cited from earlier work.

This is an account of results in US6479493B1, “Methods for treatment of type I diabetes” (Cell Pathways, Inc., priority 2001, dated 2002).

Structures are written as SMILES. Read-outs that look alike come from different tables or passages of the source.

As a reminder, the Kd is the free concentration of one partner at which half of the binding sites on the other are occupied at equilibrium, for simple one-to-one binding.

Turning to `Nc1nc2c(nc(Br)n2[C@@H]2O[C@@H]3COP(=O)(O)O[C@H]3[C@H]2O)c(=O)[nH]1` [Example 8-bromo-cGMP, 8-bromo-cGMP], the “competition with cGMP binding at high concentration” value in experiment [1] is listed as “can partially compete with cGMP”.

On to `CCCCOC1C2OP(=O)(O)OCC2OC1n1cnc2c(N)ncnc21` (stereo not drawn) [2′-O-butyl-cAMP], for which the “competition with cGMP in binding to the cGMP binding sites of GST-cGB-PDE5” value (shortened to “competition with cGMP in binding”) in experiment [1] (3H-cGMP 2 μM, 22° C., 1 hour) was “did not compete with cGMP in binding”.

As for `O=C([O-])C1CCN(c2nc(NCc3ccc4c(c3)OCO4)c3cc(Cl)ccc3n2)CC1.[Na+]` [Example E4021], the “competition with cGMP in binding” value in experiment [1] (3H-cGMP 2 μM, 22° C., 1 hour) is listed as “None of the PDE5 inhibitors showed any competition with cGMP in binding”.

`O=c1ccn([C@@H]2O[C@@H]3COP(=O)(O)O[C@H]3[C@H]2O)c(=O)[nH]1` [cUMP, cyclic UMP]: the “competition with cGMP in binding” value in experiment [1] (3H-cGMP 2 μM, 22° C., 1 hour) is reported as “did not compete with cGMP in binding”.

With `CCCCOC1C2OP(=O)(O)OCC2OC1n1cnc2c(=O)[nH]c(N)nc21` (stereo not drawn) [2′-O-butyl-cGMP], the “competition with cGMP in binding” value in experiment [1] (3H-cGMP 2 μM, 22° C., 1 hour) is given as “did not compete with cGMP in binding”.

`CCCc1nn(C)c2c(=O)[nH]c(-c3cc(S(=O)(=O)N4CCN(C)CC4)ccc3OCC)nc12` [sildenafil]: the “levels of apoptosis (active caspase 3)” value in the experiment on U937 cells (0.3 nM) is recorded as “No increase in the levels of apoptosis compared to normal background was observed”.

Regarding `COc1ccc(C2CNC(=O)C2)cc1OC1CCCC1` (stereo not drawn) [rolipram], in the experiment on U937 cells (0.5 uM), the “levels of apoptosis (active caspase 3)” value was “No increase in the levels of apoptosis compared to normal background was observed”.

For the molecule `O=c1[nH]cnc2c1ncn2[C@@H]1O[C@@H]2COP(=O)(O)O[C@H]2[C@H]1O` [Cyclic IMP], the “competition with cGMP binding at high concentration” value in experiment [1] was “can partially compete with cGMP”.

Regarding `Nc1ncnc2c1ncn2[C@@H]1O[C@@H]2COP(=O)(O)O[C@H]2[C@H]1O` [Cyclic AMP], the “competition with cGMP in binding” value in experiment [1] is “did not compete with cGMP in binding”.

As to `CCCOc1ccccc1-c1nc2nn[nH]c2c(=O)[nH]1` [zaprinast], in experiment [1] (3H-cGMP 2 μM, 22° C., 1 hour), the “competition with cGMP in binding” value is listed as “None of the PDE5 inhibitors showed any competition with cGMP in binding”.

Regarding `CSc1ccc(/C=C2/C(C)=C(CC(=O)O)c3cc(F)ccc32)cc1` [Sulindac sulfide], in experiment [1] (3H-cGMP 2 μM, 22° C., 1 hour), the “competition with cGMP in binding” value is on record as “None of the PDE5 inhibitors showed any competition with cGMP in binding”.

Take `Nc1ccn([C@@H]2O[C@@H]3COP(=O)(O)O[C@H]3[C@H]2O)c(=O)n1` [cCMP]: the “competition with cGMP in binding” value in experiment [1] (3H-cGMP 2 μM, 22° C., 1 hour) is given as “did not compete with cGMP in binding”.

As to `CC1=C(CC(=O)O)c2cc(F)ccc2/C1=C\c1ccc(S(C)(=O)=O)cc1` [exisulind], in experiment [1] (3H-cGMP 2 μM, 22° C., 1 hour), the “competition with cGMP in binding” value was “None of the PDE5 inhibitors showed any competition with cGMP in binding”.

For `Nc1nc2c(ncn2[C@@H]2O[C@@H]3COP(=O)(O)O[C@H]3[C@H]2O)c(=O)[nH]1` [cGMP, cyclic 3′,5′-guanosine monophosphate], the Kd was 1600 ± 200 nM in experiment [1] (read-out: Kd of cGMP binding to GST-cGB-PDE5 fusion protein, two cGMP binding sites) and 1300 nM at native bovine PDE5.
